Here are results for four compounds from patent US12599676B2, “Cytotoxic imidazo[1,2-A]pyridine compounds and their use in therapy” (MyricX Pharma Limited, priority 2022, dated 2026).

The test system of one data set is Caco-2 cells. Nature of the data set: Caco-2 cell permeability assay. Type of data set: in vitro ADME. As to conditions: apical to basal Papp, 2 μM, pH 7.4, 2.5 h. As to the method: (§1) Certain Example compounds and Comparative Example 1 were tested for their apical to basal (AB) and basal to apical (BA) permeability in Caco-2 cells.
(§2) Cell Culture: Caco-2 cells were grown for 10 days in 96-well plates in HBSS buffer containing 10 mM HEPES. Both the apical and basal pH was buffered at pH 7.4. The apical/basal volumes were 75 μl and 250 μl respectively. The incubation time was 2.5 h at 37° C. (without shaking) under 5% CO2 & 95% relative humidity.
(§3) Cell Seeding: Cells were seeded at a density of 18750 cells/well (membrane area=0.0804 cm^2) in a 96 well plate.
(§4) AB Assay: 75 μl of cell suspension was added at a density 2.5×10^5 cells/ml to the apical wells. 40 ml media was added to the feeder tray. The plates were placed in the incubator (37° C., 5% CO2 and controlled humidity). The Caco-2 cells were grown for 10 days with a media change on every alternate day.
(§5) BA Assay: 25 μl of cell suspension was added at a density of 7.5×10^5 cells/ml to the bottom side (keeping the plate upside down) of apical wells. The plate (upside down position) was placed in the incubator (37° C., 5% CO2 and 95% Relative humidity) for 2 h. The plate was turned right side up. 75 μl media was added to the apical wells and 40 ml media to the feeder tray.
(§6) Permeablity Assay: The apical and basal wells were washed with buffer (pH 7.4) and 250 μl buffer was added to the wells of the basal plate. 75 μl of compound solution (2 μM, dissolved in water with 1% DMSO) was transferred to the apical wells (n=2). The apical plate was placed onto the basal plate. The lid was placed on to prevent evaporation. The assembly was incubated at 37° C. for 2.5 h (without shaking) under 5% CO2 and 95% relative humidity. After incubation the apical plate was separated from the basal plate. Aliquots were taken out from the acceptor and donor wells, diluted and quantified using LC-MS/MS along with initial donor samples.
(§7) Membrane Integrity Test: Solution in the apical wells was discarded by inverting the plate and soaking onto tissue paper. 250 μl buffer (pH 7.4) was added to each well of basal plate and 75 μl of Lucifer Yellow (LY; 0.1 mg/ml) in buffer (pH 7.4) to the wells of apical plate. The apical plate was placed onto the basal plate and the lid used to prevent evaporation. The assembly was incubated at 37° C. for 1 h (without shaking) under 5% CO2 and 95% relative humidity. The apical plate was separated from the basal plate. Fluorescence (Ex: 432 nm, Em: 530 nm) of aliquots (100 ul) was measured from basal wells. Fluorescence of 100 μl buffer (pH 7.4) and 100 μl LY(0.1 mg/ml) was also measured. Wells having more than 1% fluorescence intensity with respect to 0.1 mg/ml LY were considered non-integrated membrane. Such wells, if any, were not considered for permeability calculation.
(§8) Calculation: Drug was detected and quantified by LC-MS/MS. Data generated took the form of an apparent permeability (Papp) value. Papp=[Va/(AreaxTime)]×(LC-MS Area of Acceptor sample×Sample dilution factor/LC-MS Area of Initial Donor). Va=Volume of Acceptor Well (in ml)=0.25, Vd=Volume of Donor Well (in ml)=0.075, Area=Surface area of the membrane (cm2)=0.0804, Time=Time of incubation (sec)=9000 Results: The results of the assay are shown in Table 3 below.
For orientation: Caco-2 monolayers are a common model of the intestinal barrier.

Data set [1] can be described thus: Caco-2 cell permeability assay. Type of data set: in vitro ADME. As to conditions: human, Caco-2, pH 7.4, basal to apical Papp, pH 7.4, 2.5 h. As to the method:
as §1, §2, §3, §4, §5, §6, §7, §8

In data set [2] the test system is SU-DHL-10 cell line (human B cell lymphoma). Nature of the data set: Cell cytotoxicity in SU-DHL-10 cell line (CellTiter-Glo). Type of data set: cell-based. The following applies: Homo sapiens, SU-DHL10, 72 h, 72 h treatment, CTG. The method, then:
Certain Example compounds of the invention and Comparator Compound 1 were tested in the SU-DHL-10 cell line (human B cell lymphoma). Compounds which show efficacy in this assay are expected to be useful as agents for treating or preventing hyperproliferative disorders such as cancer.
(§9) Cells were seeded in 96-well microplates and treated with compounds or cisplatin (as a positive control) at 9 increasing concentrations in technical triplicate. […] On day 1, 90 μL of various cell suspensions with the number of cells ranging from 5000-8000 cells/well were seeded into wells of a 96-well plate (Corning). The number of cells to be seeded was previously determined. • 2. All 96-wells plates with cells were placed in an incubator overnight at 37° C. with 5% CO2. • 3. On day 2, cells were observed under a microscope ensuring the cells treated with vehicle control were in good condition. • 4. A dilution series of the test compounds and cisplatin were prepared at 10× the final concentrations required. 10 μL/well of 10× compound solution was added to the corresponding plates. The final volume was 100 μL/well for all the plates. Final DMSO concentration was 0.1%. • 5. On day 5 (after 72 hours of incubation), 50 μL of CTG reagent was added to each well. • 6. Contents were mixed for 5 minutes on an orbital shaker to facilitate cell lysis. • 7. The plate was allowed to incubate at room temperature for 10 minutes to stabilize luminescent signals.
Luminescence was recorded using an EnVision Multi Label Reader. Data analysis was performed using GraphPad Prism 8.0.
To calculate IC50, a concentration-response curve was generated using a nonlinear regression model with a sigmoidal concentration response. The formula for calculating the % of viable cells was shown below, and the IC50s are automatically generated by GraphPad Prism 8.0.
(LumTest article=luminescence in test article treated well; LumNone treated=luminescence in vehicle treated well; LumMedium control=luminescence in a well containing only medium and no cells; LumNone treated-LumMedium control was set as 100%)

The test system of a further data set is DOHH-2 tumor cells. As to the kind of experiment: Subcutaneous xenograft DOHH-2 lymphoma model. Type of data set: in vivo, CB17/SCID mice. The method, then: The in vivo efficacy of certain Example compounds was assessed in a subcutaneous xenograft DOHH-2 Lymphoma Model using 10 female 6-8 week old CB17/SCID Mice. Each mouse was inoculated subcutaneously at the right front region with DOHH-2 tumor cells (5×10^6) in 0.1 ml of PBS mixed with matrigel (1:1 PBS:matrigel) for tumor development. The test compound administration started once the mean tumor size reached approximately 100-150 mm^3.
Compounds were administered either IP (vehicle 10 mM sodium phosphate+0.2% Tween-80 (pH7.4) or orally (vehicle 15 Na2HPO4 buffer (10 mM) (pH 4.5)+0.2% tween 80). Tumor volumes were measured in two dimensions using a caliper, and the volume expressed in mm^3 using the formula: V=(L×W×W)/2, where V is tumor volume, L is tumor length (the longest tumor dimension) and W is tumor width (the longest tumor dimension perpendicular to L).
Mice were dosed with Example 21 orally (12.5 or 25 mg/kg) once a day for 9 consecutive days (FIG. 3). Example 5 was dosed intraperitoneally (7 or 20 mg/kg) in a cycle consisting of administration QD for three days followed by a three day no-dosing period followed by QD dosing for a further three days (FIG. 4). Example 12 was dosed intraperitoneally (0.7 or 2 mg/kg) in a cycle consisting of administration QD for three days followed by a three day no-dosing period followed by QD dosing for a further three days (FIG. 5). In a separate study Example 12 was dosed at […] in a cycle consisting of administration QD for two days followed by either four or six day no-dosing period, and this cycle was repeated three times (FIG. 6).

The subject of a further data set is mouse hepatocytes. Nature of the data set: Hepatocyte metabolic stability, mouse. Type of data set: in vitro ADME. The method, then: (§10) Biological Example 6: Rat hepatocyte half life Certain Example compounds and Comparator Compound 1 were tested for metabolic stability in a metabolic assay using mouse- and rat-derived hepatocytes. Compounds having good metabolic stability in the assay are expected to be especially useful as agents for preventing and/or treating cancer, by having a long half-life in human patients.
(§11) Frozen pooled rat and mouse hepatocytes obtained from LifeTechnologies were thawed and purified according to the manufacturer's instructions. The test compound (4 mM) in DMSO was diluted with acetonitrile to provide a 100 μM sub-stock then further diluted with pH 7.4 Krebs-Henseleit buffer (supplemented with CaCl2, NaHCO3, HEPES, fructose and glycine) to provide a 2 μM working solution. 25 μL of working solution was incubated at 37° C., treated with 25 μL of rat or mouse hepatocyte suspension (containing 1×10^6 cells/mL) and incubated at 37° C. with 5% CO2 level at 95% relative humidity. Wells were incubated for an appropriate time (0, 15, 30, 45, 60 and 75 min) then quenched with 250 μL of acetonitrile containing reference standards diltiazem, 7-ethoxycoumarin and propranolol). The plates were shaken, sonicated for 5 min then cooled to 4° C. until all sampling was complete. All plates were centrifuged at 4000 rpm for 20 min to pellet the debris. 110 μL supernatant was diluted 110 μL water and quantitated using LC-MS/MS.
(§12) A linear regression curve was fitted to a plot of natural logarithm (In) of AUC against time. The T-half (min)=0.693/slope

For a further data set, the system named is rat hepatocytes. Nature of the data set: Hepatocyte metabolic stability, rat. Type of data set: in vitro ADME. As to the method:
as §10, §11, §12

Data set [3] has as its system LYXFDLBC4113 (patient-derived xenograft lymphoma). As to the kind of experiment: Cell cytotoxicity CellTiter-Glo, LYXFDLBC4113. It counts as cell-based. The method, then: as §9
(§13) The effects of Comparator Compound 1 and certain Example compounds on the viability of various cell lines (LYXFDLBC2835, LYXFDLBC4009 and LYXFDLBC411 (patient-derived xenograft lymphoma), HT1080 (human fibrosarcoma), CA46 (human B cell lymphoma), RKO (human colon carcinoma), NCI-H1703 (human lung squamous cell carcinoma), MX-1 (human breast carcinoma), DU4475 (human breast carcinoma), LU2511 (human lung large cell undifferentiated carcinoma), LU0884 (human lung squamous cell carcinoma)), Panc-1 (human pancreatic carcinoma), MCF-7 (human breast cancer), SW480 (human colon adenocarcinoma) and HCC1806 (human breast ductal carcinoma) were performed using the standard CellTiter-Glo assay (CTG, Promega) as described in Biological Example 2. Compounds which show efficacy in these assays are expected to be useful as agents for treating or preventing hyperproliferative disorders such as cancer.
For orientation: Cellular ATP, detected with luciferase, serves as a proxy for viable cell number.

Data set [4] relates to LYXFDLBC2835 (patient-derived xenograft lymphoma). Nature of the data set: Cell cytotoxicity CellTiter-Glo, LYXFDLBC2835. Type of data set: cell-based. As to the method:
as §9, §13

Data set [5] relates to LYXFDLBC4009 (patient-derived xenograft lymphoma). Nature of the data set: Cell cytotoxicity CellTiter-Glo, LYXFDLBC4009. Type of data set: cell-based. As to the method:
as §9, §13

Structures are written as SMILES.

In the case of `CNCc1cnc2ccc(-c3ccc(F)c(F)c3OCCc3c(C(C)O)nn(C)c3C)cn12` (stereo not drawn) [Example 5, 1-{4-[2-(2,3-difluoro-6-{3-[(methylamino)methyl]imidazo[1,2-a]pyridin-6-yl}phenoxy)ethyl]-1,5-dimethyl-1H-pyrazol-3-yl}ethan-1-ol], the “Caco-2 A-B” value with Caco-2 cells is 0.195 ×10⁻⁶ cm/s. Also, the apparent permeability from basolateral to apical (Papp B→A) – broadly, how fast a substance crosses the layer from the basolateral side – at 2.5 h, 2 μM in data set [1] amounted to 160 nm/s. Moreover, in [2], it took 0.0059 µM to reach half-maximal inhibition (IC50). Besides, in the data set on DOHH-2 tumor cells (intraperitoneal dosing (Example 5: 7 or 20 mg/kg; Example 12: 0.7 or 2 mg/kg), QD cycles), the “tumour volume compared to vehicle” value is “significant reduction in tumour volume or reduced growth in tumour volume”. Moreover, in the data set with mouse hepatocytes, the “mHeps t^1/2” value is 51.17 min.
Consider `CNCc1cnc2ccc(-c3ccc(F)cc3OCCc3c(C(C)O)nn(C)c3C)cn12` (stereo not drawn) [Example 1, 1-{4-[2-(5-fluoro-2-{3-[(methylamino)methyl]imidazo[1,2-a]pyridin-6-yl}phenoxy)ethyl]-1,5-dimethyl-1H-pyrazol-3-yl}ethan-1-ol], for which, in the data set with Caco-2 cells, the “Caco-2 A-B” value amounted to 0.1 ×10⁻⁶ cm/s. Besides, in data set [1], the Papp B→A at 2.5 h, 2 μM came to 141 nm/s. Besides, in data set [2], the IC50 – broadly, the point on the concentration scale where inhibition reaches its midpoint – is 0.0153 µM. The “rHeps t^1/2” value in the data set on rat hepatocytes is 68 min.
Turning to `Cc1c(CCOc2c(-c3ccc4ncc(CN(C)C)n4c3)ccc(F)c2F)c(C(C)O)nn1C` (stereo not drawn) [Example 6, 1-(4-(2-(6-(3-((dimethylamino)methyl)imidazo[1,2-a]pyridin-6-yl)-2,3-difluorophenoxy)ethyl)-1,5-dimethyl-1H-pyrazol-3-yl)ethan-1-ol], the “Caco-2 A-B” value with Caco-2 cells is 3.04 ×10⁻⁶ cm/s. For the same compound, the Papp B→A at 2.5 h, 2 μM in data set [1] turned out to be 220 nm/s. Also, the IC50 in data set [2] turned out to be 0.005 µM. Besides, the “rHeps t^1/2” value in the data set on rat hepatocytes is on record as 15 min.
With `CNCc1cnc2ccc(-c3ccc(F)c(F)c3OCCc3c(C(C)(C)O)nn(C)c3C)cn12` [Example 21, 2-(4-(2-(2,3-difluoro-6-(3-((methylamino)methyl)imidazo[1,2-a]pyridin-6-yl)phenoxy)ethyl)-1,5-dimethyl-1H-pyrazol-3-yl)propan-2-ol], the half-inhibitory concentration (IC50) in data set [2] was found to be 0.0004 µM; in data set [3], 0.023 µM; in data set [4], 0.054 µM; in data set [5] it was 0.035 µM. The “tumour volume compared to vehicle” value in the data set on DOHH-2 tumor cells (oral dosing 12.5 or 25 mg/kg once a day for 9 days) is “significant reduction in tumour volume or reduced growth in tumour volume”.
